The values that follow come from patent publication US11352344B2, “Antagonists of the muscarinic acetylcholine receptor M4” (Vanderbilt University, priority 2017, dated 2022).

A word on the IC50: it is the concentration at which inhibition is half-maximal.

Each structure is given as a SMILES string.

In one experiment the test system is mice. Nature of the experiment: haloperidol-induced catalepsy, a model of parkinsonian motor disability. The format is in vivo. The text has this: Furthermore, haloperidol-induced catalepsy, a model of parkinsonian motor disability, is reduced in M4 knockout mice as compared to wild-type controls. […] The reversal by scopolamine was uncommonly robust and more pronounced than we observe with agents targeting a number of other targets being evaluated for potential antiparkinsonian effects, including metabotropic glutamate (mGlu) receptors mGlu4 or mGlu5, A2A adenosine receptors, and NMDA receptors. […] Taken together with the extensive studies of M4 modulation of basal ganglia and motor function, these studies provide compelling evidence that M4 is the dominant mAChR subtype involved in the antiparkinsonian effects of non-selective mAChR antagonists and provide support for discovery and development of selective M4 antagonists for treatment of neurodegenerative disease such as PD, dystonia, tardive dyskinesia and other movement disorders.

The next experiment relates to M4 knockout mice. Particulars: but not the other four mAChR subtypes (M1-3,5); cited from earlier work.
Another experiment concerns the target T1, Human M4 (Homo sapiens, UniProt P08173).
T1 construct: expressed in transfected cells; host or cells: CHO-K1 (Chinese hamster ovary) cells, stably co-transfected with Gqi5
T1 sequence (P08173 1-479): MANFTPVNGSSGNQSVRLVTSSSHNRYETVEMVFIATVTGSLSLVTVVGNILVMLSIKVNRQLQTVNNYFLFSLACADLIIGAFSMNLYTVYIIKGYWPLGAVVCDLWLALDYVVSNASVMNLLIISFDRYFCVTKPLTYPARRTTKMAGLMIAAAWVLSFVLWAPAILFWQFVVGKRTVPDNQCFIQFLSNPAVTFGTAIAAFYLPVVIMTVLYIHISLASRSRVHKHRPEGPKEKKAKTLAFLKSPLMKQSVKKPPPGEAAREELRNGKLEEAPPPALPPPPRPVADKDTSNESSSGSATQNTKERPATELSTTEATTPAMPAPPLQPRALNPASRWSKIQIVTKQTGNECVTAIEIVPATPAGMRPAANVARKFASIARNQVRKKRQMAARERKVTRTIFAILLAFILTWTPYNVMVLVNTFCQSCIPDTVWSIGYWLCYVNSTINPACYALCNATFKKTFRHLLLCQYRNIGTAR
Nature of the experiment: mAChR M4 cell-based functional assay (calcium flux, antagonism of EC80 acetylcholine response). Particulars: for remaining activity at 30 µM: % ACh maximum at 30 μM, human M4, read-out: Emin; for IC50: M4/Gqi5/CHO-K1 cells, decrease of response to EC80 acetylcholine. The procedure: Human or rat M4 cDNA, along with the chimeric G protein Gqi5, were transfected into Chinese hamster ovary (CHO-K1) cells purchased from the American Type Culture Collection using Lipofectamine2000. M4/Gqi5/CHO cells were grown in Ham's F-12 medium containing 10% heat-inactivated fetal bovine serum (FBS), 20 mM HEPES, 500 μg/mL G418 sulfate, and 200 μg/mL Hygromycin B.
For high throughput measurement of agonist-evoked increases in intracellular calcium, CHO-K1 cells stably expressing muscarinic receptors were plated in growth medium lacking G418 and hygromycin at 15,000 cells/20 μL/well in Greiner 384-well black-walled, tissue culture (TC)-treated, clear-bottom plates (VWR). Cells were incubated overnight at 37° C. and 5% CO2. The next day, cells were washed using an ELX 405 (BioTek) with assay buffer; the final volume was then aspirated to 20 μL. Next, 20 μL of a 2.3 μM stock of Fluo-4/acetoxymethyl ester (Invitrogen, Carlsbad, Calif.), prepared as a 2.3 mM stock in DMSO and mixed in a 1:1 ratio with 10% (w/v) Pluronic F-127 and diluted in assay buffer, was added to the wells and the cell plates were incubated for 50 min at 37° C. and 5% CO2. Dye was removed by washing with the ELX 405 and the final volume was aspirated to 20 μL. Compound master plates were formatted in a 10 point concentration-response curve (CRC) format (1:3 dilutions) in 100% DMSO with a starting concentration of 10 or 1 mM using a BRAVO liquid handler (Agilent). Test compound CRCs were then transferred to daughter plates (240 nL) using the Echo acoustic plate reformatter (Labcyte, Sunnyvale, Calif.) and then diluted into assay buffer (40 μL) to a 2× stock using a Thermo Fisher Combi (Thermo Fisher Scientific, Waltham, Mass.).
Calcium flux was measured using the Functional Drug Screening System (FDSS) 6000 or 7000 (Hamamatsu Corporation, Tokyo, Japan) as an increase in the fluorescent static ratio. Compounds were applied to cells (20 μL, 2×) using the automated system of the FDSS at 2 seconds into the protocol and the data were collected at 1 Hz. At 143 s, 10 μL of an EC20 concentration of the muscarinic receptor agonist acetylcholine was added (5×), followed by the addition of 12 μL of an EC80 concentration of acetylcholine at the 268 s time point (5×). Agonist activity was analyzed as a concentration-dependent increase in calcium mobilization upon compound addition. Positive allosteric modulator activity was analyzed as a concentration-dependent increase in the EC20 acetylcholine response. Antagonist activity was analyzed as a concentration-dependent decrease in the EC80 acetylcholine response; for the purposes of the tables herein, an IC50 (inhibitory concentration 50) was calculated as a concentration-dependent decrease of the response elicited by an EC80 concentration of acetylcholine. Concentration-response curves were generated using a four-parameter logistical equation in XLFit curve fitting software (IDBS, Bridgewater, N.J.) for Excel (Microsoft, Redmond, Wash.) or Prism (GraphPad Software, Inc., San Diego, Calif.) or the Dotmatics software platform (Dotmatics, Bishop's Stortford, UK).
Compounds were synthesized as described above. Activity (IC50 and Emin) was determined in the mAChR M4 cell-based functional assay as described above and the data are shown in Table 5. The compound numbers correspond to the compound numbers used in Examples 1-4 and Tables 1-4.
(A change in cytosolic calcium serves as a functional read-out for many receptors and channels.)

`CN1[C@@H]2C[C@@H](OC(=O)[C@H](CO)c3ccccc3)C[C@H]1[C@@H]1O[C@@H]12` [scopolamine]: the “reducing catalepsy induced by haloperidol” value in the experiment on mice (M4 KO mice) was “ineffective”. In addition, the “reversal of catalepsy induced by haloperidol” value in the experiment with mice (WT mice) is “completely reversed”. For the same compound, the locomotor-activating effects entry in the experiment with M4 knockout mice was “dramatically reduced”.

As for `Cc1cnn(C)c1-c1ccc(NCCC2CCC3CN(CC45CC6CC(CC(C6)C4)C5)CC23)nn1` (stereo not shown) [Compound 18, N-[2-[2-(1-adamantylmethyl)-3,3a,4,5,6,6a-hexahydro-1H-cyclopenta[c]pyrrol-4-yl]ethyl]-6-(2,4-dimethylpyrazol-3-yl)pyridazin-3-amine], at Human M4, the remaining activity at 30 µM was 3.52% and the IC50 was determined as 402 nM.

With `Cc1cnn(C)c1-c1ccc(NCCC2CCC3CN(CCC(C)(C)C)CC23)nn1` (stereo not shown) [Compound 10, N-[2-[2-(3,3-Dimethylbutyl)-3,3a,4,5,6,6a-hexahydro-1H-cyclopenta[c]pyrrol-4-yl]ethyl]-6-(2,4-dimethylpyrazol-3-yl)pyridazin-3-amine], at Human M4, the remaining activity at 30 µM was 4.47% and the IC50 was 130 nM.

Take `Cc1cnn(C)c1-c1ccc(NCCC2CCC3CN(CCCc4ccccc4)CC23)nn1` (stereo not shown) [Compound 17, 6-(2,4-dimethylpyrazol-3-yl)-N-[2-[2-(3-phenylpropyl)-3,3a,4,5,6,6a-hexahydro-1H-cyclopenta[c]pyrrol-4-yl]ethyl]pyridazin-3-amine]: at Human M4, the remaining activity at 30 µM was determined as 5.4% and the IC50 worked out at 1050 nM.

With `Cc1cnn(C)c1-c1ccc(NC2CCC3CN(CC45CC6CC(CC(C6)C4)C5)CC32)nn1` (stereo not shown) [Compound 2, 2-(1-adamantylmethyl)-N-[6-(2,4-dimethylpyrazol-3-yl)pyridazin-3-yl]-3,3a,4,5,6,6a-hexahydro-1H-cyclopenta[c]pyrrol-4-amine], at Human M4, the remaining activity at 30 µM is 8.16% and the IC50 is 2170 nM.

On to `Cc1cnn(C)c1-c1ccc(OC2CCC3CN(CC45CC6CC(CC(C6)C4)C5)CC32)nn1` (stereo not shown) [Compound 6, 2-(1-adamantylmethyl)-4-[6-(2,4-dimethylpyrazol-3-yl)pyridazin-3-yl]oxy-3,3a,4,5,6,6a-hexahydro-1H-cyclopenta[c]pyrrole], for which, at Human M4, the remaining activity at 30 µM was 3.95% and the IC50 stood at 1030 nM.

`Cc1cnn(C)c1-c1ccc(NC2CCC3CN(CC4CC5C=CC4C5)CC32)nn1` (stereo not shown) [Compound 3, 2-(5-bicyclo[2.2.1]hept-2-enylmethyl)-N-[6-(2,4-dimethylpyrazol-3-yl)pyridazin-3-yl]-3,3a,4,5,6,6a-hexahydro-1H-cyclopenta[c]pyrrol-4-amine]: at Human M4, the remaining activity at 30 µM came to 14% and the IC50 turned out to be 3280 nM.

Regarding `Cc1cnn(C)c1-c1ccc(NCC2CCC3CN(CC4CCOCC4)CC23)nn1` (stereo not shown) [Compound 25, 6-(2,4-dimethylpyrazol-3-yl)-N-[[2-(tetrahydropyran-4-ylmethyl)-3,3a,4,5,6,6a-hexahydro-1H-cyclopenta[c]pyrrol-4-yl]methyl]pyridazin-3-amine], on Human M4, the remaining activity at 30 µM worked out at 27.8% and the IC50 is above 10000 nM.

Consider `Cc1cnn(C)c1-c1ccc(NC2CCC3CN(CCC(C)(C)C)CC32)nn1` (stereo not shown) [Compound 1, 2-(3,3-Dimethylbutyl)-N-[6-(2,4-dimethylpyrazol-3-yl)pyridazin-3-yl]-3,3a,4,5,6,6a-hexahydro-1H-cyclopenta[c]pyrrol-4-amine], for which, at Human M4, the remaining activity at 30 µM came out at 31.1% and the IC50 is above 10000 nM.
